# Like-named read-outs stand apart in the source and are kept apart here.
# How the values were obtained:
# [1] = tested on: bleomycin-induced pulmonary fibrosis and pulmonary hypertension; conditions: in vivo; cited from earlier work
# [2] = tested on: pulmonary fibrosis; conditions: patients with pulmonary fibrosis, open-label trials; cited from earlier work
# [3] = tested on: bleomycin-induced lung fibrotic remodeling; conditions: rat, preventive and therapeutic protocols; cited from earlier work
# [4] = tested on: bleomycin-induced lung fibrotic remodeling; conditions: mice, preventive and therapeutic protocols; cited from earlier work
# [5] = biological target: T1, PDE4B1 (Homo sapiens, UniProt Q07343); assay: Inhibition of PDE4B1 activity (SPA, [3H]cAMP); type: biochemical; conditions: recombinant PDE4B1, 0.5 μM cAMP; binned: below 8 / between 8 and 9; read-out: PDE4B1 inhibitory values measured as −logIC50 (converted)
# T1 construct: made in house; host or cells: SF21 insect cells (baculovirus; virus prepared in SF9 cells)
# Method: The PDE4B1 (GB no. L20966) was a gift of Prof. M. Conti (Stanford University, USA). It was amplified from the original plasmid (pCMV5) via PCR with primers Rb18 (5′-[…]-3′) and Rb10 (5′-[…]-3′) and cloned into the pCR-Bac vector (Invitrogen, Groningen, NL).
# The recombinant baculovirus was prepared by means of homologous recombination in SF9 insect cells. The expression plasmids were cotransfected with Baculo-Gold DNA (Pharmingen, Hamburg) using a standard protocol (Pharmingen, Hamburg). Wt virus-free recombinant virus supernatants were selected using plaque assay methods. After that, high-titre virus supernatants were prepared by amplifying 3 times. PDE4B1 was expressed in SF21 cells by infecting 2×10^6 cells/ml with an MOI (multiplicity of infection) between 1 and 10 in the serum-free SF900 medium (GIBCO Life Technologies, Karlsruhe, Germany). The cells were cultured at 28° C. for 48-72 hours, after which they were pelleted for 5-10 min at 1000×g and 4° C.
# The SF21 insect cells were resuspended, at a concentration of approx. 10^7 cells/ml, in ice-cold (4° C.) homogenization buffer (20 mM Tris, pH 8.2, containing the following additions: 140 mM NaCl, 3.8 mM KCl, 1 mM EGTA, 1 mM MgCl2, 10 mM β-mercaptoethanol, 2 mM benzamidine, 0.4 mM Pefablock, 10 μM leupeptin, 10 μM pepstatin A, 5 μM trypsin inhibitor) and disrupted by ultrasonication. The homogenate was then centrifuged for 10 min at 1000×g and the supernatant was stored at −80° C. until subsequent use (see below). The protein content was determined by the Bradford method (BioRad, Munich) using BSA (Bovine serum albumin) as the standard.
# PDE4B1 activities were measured in a 96-well platform using SPA (scintillation proximity assay) yttrium silicate beads (RPNQ1050 from GE Healthcare). In a first step the PDE activity operated hydrolysis of either [^3H] cAMP (substrate) into [^3H] 5′AMP. In a second step substrate and product were distinguished following addition of SPA yttrium silicate beads. Indeed, in the presence of zinc sulphate the linear [^3H] […] Close proximity of bound [^3H] […] The test volume was 100 μl and finally contained 20 mM Tris buffer (pH 7.4), 0.1 mg/ml of BSA, 5 mM Mg^2+, 0.5 μM cAMP (including about 50,000 cpm of [3H]cAMP) as substrate, 1 μl of the respective substance dilution in DMSO and sufficient recombinant PDE (1000×g supernatant, see above) to ensure that 10-20% of the cAMP was converted under the said experimental conditions. […] After a preincubation of 5 min at 37° C., the reaction was commenced by adding the substrate (cAMP) and the assays were incubated for a further 15 min. Reactions were terminated by adding SPA beads (50 μl). In agreement with the manufacturer's instructions, the SPA beads had previously been resuspended in water, but were then diluted 1:3 (v/v) in water. This diluted solution further contained 3 mM IBMX (isobutylmethylxanthine) to ensure a complete block of PDE activity. Once the beads were sedimented (>30 min), the MTP's (microtiter plate) were analyzed in commercially available luminescence detection devices. The corresponding IC50 values of the compounds for inhibition of PDE4B1 activity were determined from the concentration-effect curves by means of non-linear regression.
# For the following compounds PDE4B1 inhibitory values [measured as −logIC50 (mol/l)] below 8 and between 8 and 9 have been determined. The numbers of the compounds correspond to the numbers of the examples.
# [6] = biological target: T2, human PDE5 (Homo sapiens, UniProt O76074); assay: Inhibition of PDE5 activity (SPA, [3H]cGMP, platelet lysate); type: biochemical; conditions: 0.5 μM cGMP, binned: below 8 / between 8 and 9, read-out: PDE5 inhibitory values measured as −logIC50 (converted)
# T2 construct: from tissue; host or cells: human platelets from fresh donor blood (platelet lysate)
# Method: As a source for human PDE5, platelets were used. For that purpose, 150 ml fresh blood from human donors anticoagulated with citrate [final concentration 0.3% (w/v)] was centrifuged at 200 g for 10 min to obtain the so-called platelet-rich-plasma (PRP) as a supernatant. 1/10 volume of ACD solution (85 mM Na3-citrate, 111 mM D-glucose, 71 mM citric acid, pH 4.4) was added to 9/10 volume of PRP. After centrifugation (1,400 g, 10 min) the cell pellet was resuspended in 3 ml homogenization buffer (NaCl 140 mM, KCl 3.8 mM, EGTA (ethylene glycol tetraacetic acid) 1 mM, MgCl2 1 mM, Tris-HCl 20 mM, beta-mercaptoethanol 1 mM, pH 8.2) plus protease-inhibitor mix resulting in final concentrations of 0.5 mM Pefablock (Roche), 10 μM Leupeptin, 5 μM Trypsine inhibitor, 2 mM Benzamidin and 10 μM Pepstatin A. The suspension was sonicated and thereafter centrifuged for 15 min at 10,000 g. The resulting supernatant (platelet lysate) was used for enzymatic assays.
# PDE5 activities were measured in a 96-well platform using SPA (scintillation proximity assay) yttrium silicate beads (RPNQ1050 from GE Healthcare). In a first step the PDE activity operated hydrolysis of either [^3H] cGMP (substrate) into [^3H] 5′GMP. In a second step substrate and product were distinguished following addition of SPA yttrium silicate beads. Indeed, in the presence of zinc sulphate the linear [^3H] […] Close proximity of bound [^3H] […] The test volume was 100 μl and contained 20 mM Tris buffer (pH 7.4), 0.1 mg of BSA (bovine serum albumin)/ml, 5 mM Mg^2+, 1 μM motapizone (PDE3 Inhibitor), 10 nM PDE2 inhibitor 2-(3,4-dimethoxybenzyl)-7-[(1R,2R)-2-hydroxy-1-(2-phenylethyl)propyl]-5-methylimidazo[5,1-f][1,2,4]triazin-4(3H)-one, 0.5 μM cGMP (cyclic guanosine monophosphate) (including about 50,000 cpm of [3H]cGMP as a tracer) (substrate), 1 μl of the respective compound dilution in dimethylsulfoxide (DMSO) and sufficient PDE5-containing platelet lysat (10,000×g supernatant, see above) to ensure that 10-20% of the cGMP was converted under the said experimental conditions. […] After a preincubation of 5 min at 37° C., the reaction was commenced by adding the substrate (cGMP) and the assay was incubated for a further 15 min. The reaction was terminated by adding SPA beads (50 μl). In agreement with the manufacturer's instructions, the SPA beads had previously been resuspended in water, but were then diluted 1:3 (v/v) in water. This diluted solution also contained 3 mM 8-methoxymethyl-3-isobutyl-1-methylxanthine (IBMX) to ensure a complete block of PDE activity. Once the beads were sedimented (>30 min), the MTP's were analyzed in commercially available luminescence detection devices. The corresponding IC50 values of the compounds for inhibition of PDE activity were determined from the concentration-effect curves by means of non-linear regression.
# For the following compounds PDE5 inhibitory values [measured as −logIC50 (mol/l)] below 8 and between 8 and 9 have been determined. The numbers of the compounds correspond to the numbers of the examples.
# T1 sequence (Q07343 whole entry): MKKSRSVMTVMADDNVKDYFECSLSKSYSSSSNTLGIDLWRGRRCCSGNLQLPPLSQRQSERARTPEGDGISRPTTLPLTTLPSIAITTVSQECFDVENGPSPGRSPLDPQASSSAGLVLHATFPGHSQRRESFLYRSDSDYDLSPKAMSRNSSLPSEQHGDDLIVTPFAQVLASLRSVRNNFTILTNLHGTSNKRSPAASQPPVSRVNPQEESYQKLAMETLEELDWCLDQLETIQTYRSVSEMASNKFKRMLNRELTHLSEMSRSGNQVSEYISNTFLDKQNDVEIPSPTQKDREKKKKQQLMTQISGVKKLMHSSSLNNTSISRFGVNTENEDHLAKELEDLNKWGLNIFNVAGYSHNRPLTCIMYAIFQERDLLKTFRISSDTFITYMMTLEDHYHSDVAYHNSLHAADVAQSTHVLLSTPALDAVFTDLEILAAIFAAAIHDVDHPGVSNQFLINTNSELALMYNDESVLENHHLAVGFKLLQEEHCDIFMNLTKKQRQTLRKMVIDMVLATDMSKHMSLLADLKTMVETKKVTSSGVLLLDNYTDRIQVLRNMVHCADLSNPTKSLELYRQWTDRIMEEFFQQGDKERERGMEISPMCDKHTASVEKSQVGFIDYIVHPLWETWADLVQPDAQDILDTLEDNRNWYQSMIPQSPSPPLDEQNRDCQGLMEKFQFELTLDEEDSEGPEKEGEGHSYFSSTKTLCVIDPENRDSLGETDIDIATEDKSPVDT
SMILES,IC50 [5] [nM],IC50 [6] [nM],also measured
CCCc1nn(C)c2c(=O)[nH]c(-c3cc(S(=O)(=O)N4CCN(C)CC4)ccc3OCC)nc12 [sildenafil],,,effect on bleomycin-induced pulmonary fibrosis and pulmonary hypertension [1]: attenuates bleomycin-induced pulmonary fibrosis and pulmonary hypertension; exercise tolerance [2]: increases exercise tolerance; lung hemodynamic parameters (vascular resistance and ventilation/perfusion matching) [2]: improves lung hemodynamic parameters
O=C(Nc1c(Cl)cncc1Cl)c1ccc(OC(F)F)c(OCC2CC2)c1 [roflumilast],,,effect on bleomycin-induced lung fibrotic remodeling [3]: alleviate bleomycin-induced lung fibrotic remodeling; effect on bleomycin-induced lung fibrotic remodeling [4]: alleviate bleomycin-induced lung fibrotic remodeling
"CCOc1cc2c(cc1OC)C(c1ccc(C(=O)N3CCC(n4c(=O)c5sc(-c6ccccc6)cc5n(Cc5ccc(C)c(F)c5)c4=O)CC3)cc1)=N[C@@H]1CCSC[C@H]21 [Example 6, 3-[1-({4-[(4aR,10bR)-9-ethoxy-8-methoxy-3,4,4a,10b-tetrahydro-1H-thiopyrano[4,3-c]isoquinolin-6-yl]phenyl}carbonyl)piperidin-4-yl]-1-(3-fluoro-4-methylbenzyl)-6-phenylthieno[3,2-d]pyrimidine-2,4(1H,3H)-dione]",> 10,1 to 10,
"CCOc1cc2c(cc1OC)C(c1ccc(C(=O)N3CCC(n4c(=O)c5sc(-c6ccccc6)cc5n(Cc5ccccc5)c4=O)CC3)cc1)=N[C@@H]1CCSC[C@H]21 [Example 7, 1-benzyl-3-[1-({4-[(4aR,10bR)-9-ethoxy-8-methoxy-3,4,4a,10b-tetrahydro-1H-thiopyrano[4,3-c]isoquinolin-6-yl]phenyl}carbonyl)piperidin-4-yl]-6-phenylthieno[3,2-d]pyrimidine-2,4(1H,3H)-dione]",1 to 10,1 to 10,

# Further lines, with some results ahead:
IC50 [5] [nM],IC50 [6] [nM],SMILES,also measured
1 to 10,1 to 10,"CCOc1cc2c(cc1OC)C(c1ccc(C(=O)N3CCC(n4c(=O)c5sc(-c6cc(OC)ccc6OC)cc5n(Cc5ccc(OC)c(F)c5)c4=O)CC3)cc1)=N[C@@H]1CCSC[C@H]21 [Example 11, 6-(2,5-dimethoxyphenyl)-3-[1-({4-[(4aR,10bR)-9-ethoxy-8-methoxy-3,4,4a,10b-tetrahydro-1H-thiopyrano[4,3-c]isoquinolin-6-yl]phenyl}carbonyl)piperidin-4-yl]-1-(3-fluoro-4-methoxybenzyl)thieno[3,2-d]pyrimidine-2,4(1H,3H)-dione]",
1 to 10,1 to 10,"CCOc1cc2c(cc1OC)C(c1ccc(C(=O)N3CCC(n4c(=O)c5sc(-c6ccc7c(c6)OCO7)cc5n(Cc5ccc(OC)c(F)c5)c4=O)CC3)cc1)=N[C@@H]1CCSC[C@H]21 [Example 8, 6-(1,3-benzodioxol-5-yl)-3-[1-({4-[(4aR,10bR)-9-ethoxy-8-methoxy-3,4,4a,10b-tetrahydro-1H-thiopyrano[4,3-c]isoquinolin-6-yl]phenyl}carbonyl)piperidin-4-yl]-1-(3-fluoro-4-methoxybenzyl)thieno[3,2-d]pyrimidine-2,4(1H,3H)-dione]",
1 to 10,1 to 10,"CCOc1cc2c(cc1OC)C(c1ccc(C(=O)N3CCC(n4c(=O)c5sc(-c6ccc(F)cc6OC)cc5n(Cc5ccc(OC)c(F)c5)c4=O)CC3)cc1)=N[C@@H]1CCSC[C@H]21 [Example 9, 3-[1-({4-[(4aR,10bR)-9-ethoxy-8-methoxy-3,4,4a,10b-tetrahydro-1H-thiopyrano[4,3-c]isoquinolin-6-yl]phenyl}carbonyl)piperidin-4-yl]-1-(3-fluoro-4-methoxybenzyl)-6-(4-fluoro-2-methoxyphenyl)thieno[3,2-d]pyrimidine-2,4(1H,3H)-dione]",

# From patent US20140113877A1, “NOVEL 3,4,4A,10B-TETRAHYDRO-1H-THIOPYRANO[4,3-C] ISOQUINOLINE COMPOUNDS” (Takeda GmbH, priority 2011, published 2014)
